This passage reports IC50 results from patent US20080221129A1, “New compounds” (priority 2006, published 2008).

The test addresses T1, stearoyl-CoA desaturase (SCD) (Rattus norvegicus, UniProt P07308).
T1 construct: 0.032 mg/ml rat liver microsomes (total protein content); from tissue
T1 sequence (P07308 1-358): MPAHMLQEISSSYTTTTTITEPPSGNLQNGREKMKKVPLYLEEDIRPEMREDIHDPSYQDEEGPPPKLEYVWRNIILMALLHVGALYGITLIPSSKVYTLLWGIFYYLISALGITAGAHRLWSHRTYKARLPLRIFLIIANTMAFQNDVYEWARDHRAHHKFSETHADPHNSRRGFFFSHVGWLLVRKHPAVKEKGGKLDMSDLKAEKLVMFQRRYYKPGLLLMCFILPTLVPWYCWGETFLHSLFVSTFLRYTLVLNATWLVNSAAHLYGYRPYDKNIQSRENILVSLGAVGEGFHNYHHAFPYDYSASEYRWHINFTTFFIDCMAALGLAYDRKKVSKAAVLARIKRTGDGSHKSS
Put plainly: Tritium release screening assay for inhibition of stearoyl-CoA desaturase activity in rat liver microsomes. The class given is biochemical, rat (Male Sprague-Dawley). Conditions: [3H]-stearoyl-CoA, 20 min pre-incubation, 20 min reaction, 384- or 96-well format. An excerpt: Another measure of SCD activity was introduced by Talamo and Bloch in 1969 [Talamo & Bloch (1969) Anal. Biochem. 29, 300-304]. This method is based on the quantification of a second product of the desaturase reaction, i.e. the water molecule that is released in the desaturase reaction. The quantification is based on the use of a long chain acyl-CoA substrate, e.g. stearoyl-CoA, that is specifically labeled with tritium in positions 9 and 10 of the carbon chain such that the released water is also tritiated ([^3H]-H2O). The remaining [^3H]-stearoyl-CoA as well as the product [^3H]-oleyl-CoA must then be separated from the solution before the tritiated water content can be measured by means of liquid scintillation. Talamo and Bloch acid precipitated the long chain acyl-CoAs followed by filtration to achieve this separation, but this separation can also be achieved by means of centrifugation instead of filtration [Johnson & Guhr (1971) Lipids 6, 78-84]. An alternative procedure that involves precipitation by ethanol and activated charcoal followed by centrifugation has also been described [Shanklin and Somerville (1991) Proc. Natl. Acad. Sci. USA 88, 2510-2514]. Based on these studies it is clear that near perfect separation is required for optimal assay performance. When applying this assay it is important to recognize that the apparent desaturation rate is impacted by isotope effects as described by Johnson and Gurr in 1971 [Johnson & Guhr (1971) Lipids 6, 78-84]. Thus whereas the assay serves as an excellent measure of relative SCD activity it must be calibrated using other methods when absolute measures of enzyme activity are needed. The pros and cons of this assay have also been summarized in the literature [Gurr & Robinson (1972) Anal. Biochem. 47, 146-156]. An abundant source of stearoyl-CoA desaturase activity can be found in microsomal preparations from the liver of rats that have been subjected to a fasting-refeeding procedure on a low fat/high carbohydrate diet [reviewed in Ntambi (1999) J. Lipid Res. 40, 1549-1558]. However, microsomal preparations are not a pure source of SCD activity and this means that the added stearoyl-CoA substrate is subject also to other enzymatic processes. It is therefore essential to include reagents that allow regeneration of the stearoyl-CoA substrate as described by Bertram and Erwin [Bertram & Erwin (1981) J. Protozool. 8, 127-131].
The tritium release assay for the measurement of SCD activity is thus well documented in the literature. Descriptions on how these finding have been used to produce standard screening assays in 96-well plates are also available [Brownlie, Hayden, Attie, Ntambi, Gray-Keller, & Miyazaki (2001) WO 01/62954; Wu, Gallipoli, Gallagher, & Gardell (2004) WO 2004/04776]. […]
(In general: Liver microsomes are a subcellular fraction often used to study metabolism.)

As to `Cc1nc2c(C(=O)NCC3CCCO3)cnn2c(C)c1Cc1cccc(Br)c1` (stereo not shown) [6-(3-bromobenzyl)-5,7-dimethyl-N-(tetrahydrofuran-2-ylmethyl)pyrazolo[1,5-a]pyrimidine-3-carboxamide], the IC50 is 140 ± 67 nM.
Regarding `COCCNC(=O)c1cnn2c(C)c(Cc3ccccc3)c(C)nc12` [Example 1, 6-benzyl-N-(2-methoxyethyl)-5,7-dimethylpyrazolo[1,5-a]pyrimidine-3-carboxamide], the IC50 amounted to 1000 ± 400 nM.
In the case of `COc1cccc(Cc2c(C)nc3c(C(=O)NCCNC(C)=O)cnn3c2C)c1` [Example 8, N-[2-(Acetylamino)ethyl]-6-(3-methoxybenzyl)-5,7-dimethylpyrazolo-[1,5-a]pyrimidine-3-carboxamide] it was 830 ± 240 nM; in that of `CCOCCCNC(=O)c1cnn2c(C)c(Cc3cccc(F)c3)c(C)nc12` [Example 24, N-(3-ethoxypropyl)-6-(3-fluorobenzyl)-5,7-dimethylpyrazolo[1,5-a]-pyrimidine-3-carboxamide], 700 ± 110 nM.

What is called IC50 is the point on the concentration scale where inhibition reaches its midpoint. Low readings indicate inhibition by little substance, high ones a need for much substance.
